{"source": "patent US20240189234A1", "about": "“SILICON PARTICLES FOR DRUG DELIVERY” (NACAMED AS, priority 2021, published 2024)", "origin": "cited, not measured here"}
{"conditions": "calculated log P values from Foye's Principles of Medicinal Chemistry"}
{"compound": "CN(C)CCCN1c2ccccc2Sc2ccc(C(F)(F)F)cc21", "note": "[triflupromazine]", "log P": 5.16}
{"compound": "CCN(CC)CCN1C(=O)CN=C(c2ccccc2F)c2cc(Cl)ccc21", "note": "[flurazepam]", "log P": 4.84}
{"compound": "CN(C)CCC=C1c2ccccc2CCc2ccccc21", "note": "[amitriptyline]", "log P": 4.41}
{"compound": "CN[C@H]1CC[C@@H](c2ccc(Cl)c(Cl)c2)c2ccccc21", "note": "[sertraline]", "log P": 5.08}
{"compound": "CNCCC=C1c2ccccc2CCc2ccccc21", "note": "[nortriptyline]", "log P": 3.97}
{"compound": "CC(CNC1CCCCC1)OC(=O)c1ccccc1", "note": "(centres unmarked) [hexylcaine]", "log P": 3.65}
{"compound": "Clc1ccc(C/C(=C\\CN2CCCC2)c2ccccc2)cc1", "note": "[pyrrobutamine]", "log P": 4.57}
{"compound": "Oc1ccc2c(c1)[C@@]13CCCC[C@@]1(O)[C@@H](C2)N(CC1CCC1)CC3", "note": "[butorphanol]", "log P": 3.54}
{"compound": "iodoquinol", "log P": 4.10}
{"compound": "CC(=O)O[C@H]1C[C@@]2(C)[C@@H](C[C@@H](O)[C@H]3[C@@]4(C)CC[C@@H](O)[C@@H](C)[C@@H]4CC[C@@]32C)/C1=C(\\CCC=C(C)C)C(=O)O", "note": "[fusidic acid]", "log P": 5.76}
{"compound": "CCN(CC)CCCC(C)Nc1c2ccc(Cl)cc2nc2ccc(OC)cc12", "note": "(centres unmarked) [quinacrine]", "log P": 5.59}
{"compound": "Cc1ccccc1N1C(=O)c2cc(S(N)(=O)=O)c(Cl)cc2NC1C", "note": "(centres unmarked) [metolazone]", "log P": 3.16}
{"compound": "O=C(Nc1ccccc1)OCC(CN1CCCCC1)OC(=O)Nc1ccccc1", "note": "(centres unmarked) [diperodon]", "log P": 4.65}
{"compound": "N#CC(CCN1CCC(C(=O)O)(c2ccccc2)CC1)(c1ccccc1)c1ccccc1", "note": "[diphenoxin]", "log P": 3.97}
{"compound": "Clc1ccccc1C(c1ccccc1)(c1ccccc1)n1ccnc1", "note": "[clotrimazole]", "log P": 4.92}
{"compound": "CCCCN1CCCCC1C(=O)Nc1c(C)cccc1C", "note": "(centres unmarked) [bupivacaine]", "log P": 3.31}
{"compound": "CCCCCc1cc(O)c2c(c1)OC(C)(C)[C@@H]1CCC(C)=C[C@@H]21", "note": "[tetrahydrocannabinol]", "log P": 6.84}
{"compound": "COc1ccc2c(c1)N(C[C@H](C)CN(C)C)c1ccccc1S2", "note": "[methotrimeprazine]", "log P": 4.94}
{"compound": "CCCCN(CCCC)CCCOC(=O)c1ccc(N)cc1", "note": "[butacaine]", "log P": 4.62}
{"compound": "CO[C@H]1C[C@H](O[C@H]2[C@H](C)[C@@H](O[C@@H]3O[C@H](C)C[C@H](N(C)C)[C@H]3OC(C)=O)[C@@H](C)C[C@@]3(CO3)C(=O)[C@H](C)[C@@H](OC(C)=O)[C@@H](C)[C@@H](C)OC(=O)[C@@H]2C)O[C@@H](C)[C@@H]1OC(C)=O", "note": "[troleandomycin]", "log P": 3.46}
{"compound": "COC(=O)[C@H]1[C@H]2C[C@@H]3c4[nH]c5ccccc5c4CCN3C[C@H]2C[C@@H](OC(=O)c2cc(OC)c(OC)c(OC)c2)[C@@H]1OC", "note": "[deserpidine]", "log P": 4.95}
{"compound": "CCN[C@@H](C)Cc1cccc(C(F)(F)F)c1", "note": "[dextrofenfluramine]", "log P": 3.55}
{"compound": "CNCCCC12CCC(c3ccccc31)c1ccccc12", "note": "[maprotiline]", "log P": 4.36}
{"compound": "CCN(CC)C(=O)/C(C#N)=C/c1cc(O)c(O)c([N+](=O)[O-])c1", "note": "[entacapone]", "log P": 3.02}
{"compound": "CCNC(C)Cc1cccc(C(F)(F)F)c1", "note": "(centres unmarked) [fenfluramine]", "log P": 3.55}
{"compound": "CCCCc1nc(Cl)c(CO)n1Cc1ccc(-c2ccccc2-c2nn[nH]n2)cc1", "note": "[losartan]", "log P": 3.46}
{"compound": "N[C@@H](Cc1cc(I)c(Oc2ccc(O)c(I)c2)c(I)c1)C(=O)O", "note": "[liothyronine]", "log P": 3.91}
{"compound": "Cc1ccccc1C(OCCN(C)C)c1ccccc1", "note": "(centres unmarked) [orphenadrine]", "log P": 3.33}
{"compound": "NCCCC[C@H](N[C@@H](CCc1ccccc1)C(=O)O)C(=O)N1CCC[C@H]1C(=O)O", "note": "[Lisinopril]", "log P": 3.47}
{"compound": "O=C(CCCN1CCC2(CC1)C(=O)NCN2c1ccccc1)c1ccc(F)cc1", "note": "[spiperone]", "log P": 3.25}
{"compound": "c1ccc2c(c1)Sc1ccccc1N2CCN1CCCC1", "note": "[pyrathiazine]", "log P": 4.15}
{"compound": "CSc1ccc2c(c1)N(CCC1CCCCN1C)c1ccccc1S2", "note": "(centres unmarked) [thioridazine]", "log P": 5.90}
{"compound": "CN1CC[C@]23CCCC[C@H]2[C@H]1Cc1ccc(O)cc13", "note": "[leverphanol]", "log P": 3.26}
{"compound": "CCOC(=O)OC(C)OC(=O)[C@@H]1N2C(=O)[C@@H](NC(=O)[C@H](N)c3ccccc3)[C@H]2SC1(C)C", "note": "(some centres unmarked) [bacampicillin]", "log P": 3.52}
{"compound": "CCN(CC)CCNc1ccc(CO)c2sc3ccccc3c(=O)c12", "note": "[hycanthone]", "log P": 3.81}
{"compound": "O=c1[nH]c2ccccc2n1C1CCN(CCCC(c2ccc(F)cc2)c2ccc(F)cc2)CC1", "note": "[pimozide]", "log P": 5.57}
{"compound": "CCCCNc1ccc(C(=O)OCCN(C)C)cc1", "note": "[tetracaine]", "log P": 3.75}
{"compound": "O=C(Oc1ccccc1C(=O)O)c1ccccc1O", "note": "[salsalate]", "log P": 3.29}
{"compound": "CN(C)CCC=C1c2ccccc2C=Cc2ccccc21", "note": "[cyclobenzaprine]", "log P": 6.19}
{"compound": "C=C[C@H]1C[N@@]2CC[C@H]1C[C@@H]2[C@@H](O)c1ccnc2ccccc12", "note": "[cinchonine]", "log P": 3.69}
{"compound": "C[C@]12CC[C@@H]3c4ccc(O)cc4CC[C@H]3[C@@H]1CCC2=O", "note": "[estrone]", "log P": 3.62}
{"compound": "CC(C)(C)NC(=O)[C@H]1CC[C@H]2[C@@H]3CC[C@H]4NC(=O)C=C[C@]4(C)[C@H]3CC[C@]12C", "note": "[finasteride]", "log P": 3.83}
{"compound": "CC(=O)Oc1cc2c(s1)CCN(C(C(=O)C1CC1)c1ccccc1F)C2", "note": "(centres unmarked) [prasugel]", "log P": 4.31}
{"compound": "CCCCC1=NC2(CCCC2)C(=O)N1Cc1ccc(-c2ccccc2-c2nnn[nH]2)cc1", "note": "[irbesartan]", "log P": 5.25}
{"compound": "CC(COc1ccccc1)N(CCCl)Cc1ccccc1", "note": "(centres unmarked) [phenoxybenzamine]", "log P": 3.69}
{"compound": "OC(c1ccccc1)(c1ccccc1)C1CCCCN1", "note": "(centres unmarked) [pipradrol]", "log P": 3.61}
{"compound": "CN1CCC2=C(C1)C(c1ccccc1)c1ccccc12", "note": "(centres unmarked) [phenindamine]", "log P": 3.81}
{"compound": "O=C(O)c1cc(-c2ccc(F)cc2F)ccc1O", "note": "[diflunisal]", "log P": 3.65}
{"compound": "CN1CCN(CCCN2c3ccccc3Sc3ccc(C(F)(F)F)cc32)CC1", "note": "[trifluoperazine]", "log P": 4.62}
{"compound": "COc1ccc(-c2nc(C(F)(F)F)[nH]c2-c2ccc(OC)cc2)cc1", "note": "[flumizole]", "log P": 4.26}
{"compound": "CCC(=O)O[C@](Cc1ccccc1)(c1ccccc1)[C@H](C)CN(C)C", "note": "[propoxyphene]", "log P": 4.10}
{"compound": "CC(C)[C@@]1(NC(=O)[C@@H]2C[C@@H]3c4cccc5[nH]cc(c45)C[C@H]3N(C)C2)O[C@@]2(O)[C@@H]3CCCN3C(=O)[C@H](Cc3ccccc3)N2C1=O", "note": "[dihydroergocristine]", "log P": 6.55}
{"compound": "CC(CN(C)C)CN1c2ccccc2Sc2ccccc21", "note": "(centres unmarked) [trimeprazine]", "log P": 5.04}
{"compound": "CC(C)(C)C(=O)OCOC(=O)[C@@H]1N2C(=O)[C@@H](NC(=O)[C@H](N)c3ccccc3)[C@H]2SC1(C)C", "note": "[pivampicillin]", "log P": 3.88}
{"compound": "CN(C)CCN1C(=O)c2ccccc2N(C)c2ccccc21", "note": "[dibenzepin]", "log P": 3.26}
{"compound": "Cc1ccc(O)c([C@H](CCN(C(C)C)C(C)C)c2ccccc2)c1", "note": "[tolterodine]", "log P": 5.23}
{"compound": "CN1CCN=C(c2ccccc2)c2cc(Cl)ccc21", "note": "[medazepam]", "log P": 3.89}
{"compound": "CNCC[C@@H](Oc1ccccc1C)c1ccccc1", "note": "[atomoxetine]", "log P": 3.36}
{"compound": "CCCCOc1cc(C(=O)NCCN(CC)CC)c2ccccc2n1", "note": "[dibucaine]", "log P": 4.40}
{"compound": "CN1CCC(OC(c2ccccc2)c2ccccc2)CC1", "note": "[diphenylpyraline]", "log P": 3.43}
{"compound": "Cc1c(O)cccc1C(=O)N[C@@H](CSc1ccccc1)[C@H](O)CN1C[C@H]2CCCC[C@H]2C[C@H]1C(=O)NC(C)(C)C", "note": "[nelfinavir]", "log P": 7.28}
{"compound": "Cc1onc(-c2c(Cl)cccc2Cl)c1C(=O)N[C@@H]1C(=O)N2[C@@H]1SC(C)(C)[C@@H]2C(=O)O", "note": "[dicloxacillin]", "log P": 3.10}
{"compound": "CC(=O)OCCN1CCN(CCCN2c3ccccc3Sc3ccc(Cl)cc32)CC1", "note": "[thiopropazate]", "log P": 4.76}
{"compound": "CCCN1C[C@H](CSC)C[C@@H]2c3cccc4[nH]cc(c34)C[C@H]21", "note": "[pergolide]", "log P": 3.90}
{"compound": "CC(=O)CC(c1ccccc1)c1c(O)c2ccccc2oc1=O", "note": "(centres unmarked) [warfarin]", "log P": 3.13}
{"compound": "COc1ccccc1Oc1c(NS(=O)(=O)c2ccc(C(C)(C)C)cc2)nc(-c2ncccn2)nc1OCCO", "note": "[bosentan]", "log P": 4.36}
{"compound": "CC(C)C(=O)Oc1ccc(CO)cc1[C@H](CCN(C(C)C)C(C)C)c1ccccc1", "note": "[fesoterodine]", "log P": 5.08}
{"compound": "CC(C(=O)O)c1ccc(-c2ccccc2)c(F)c1", "note": "(centres unmarked) [flurbiprofen]", "log P": 3.66}
{"compound": "COC(=O)[C@H]1[C@H]2C[C@@H]3c4[nH]c5cc(OC)ccc5c4CCN3C[C@H]2C[C@@H](OC(=O)c2cc(OC)c(OC)c(OC)c2)[C@@H]1OC", "note": "[reserpine]", "log P": 3.65}
{"compound": "CC(C)=CCN1CCC2(C)c3cc(O)ccc3CC1C2C", "note": "(centres unmarked) [pentazocine]", "log P": 4.15}
{"compound": "Cc1ncc2n1-c1ccc(Cl)cc1C(c1ccccc1F)=NC2", "note": "[midazolam]", "log P": 3.80}
{"compound": "CN(C)CCC=C1c2ccccc2COc2ccccc21", "note": "[doxepin]", "log P": 3.85}
{"compound": "CN(C)CCC(c1ccc(Br)cc1)c1ccccn1", "note": "(centres unmarked) [brompheniramine]", "log P": 3.24}
{"compound": "CN1CCN(CCCN2c3ccccc3Sc3ccc(Cl)cc32)CC1", "note": "[prochlorperazine]", "log P": 4.65}
{"compound": "CC(C)(C)NC[C@H](O)COc1ccccc1C1CCCC1", "note": "[penbutolol]", "log P": 4.02}
{"compound": "CN(C)CCCN1c2ccccc2Sc2ccc(Cl)cc21", "note": "[chlorpromazine]", "log P": 5.35}
{"compound": "C=CCN1CC[C@]23CCCC[C@H]2[C@H]1Cc1ccc(O)cc13", "note": "[levallorphan]", "log P": 3.85}
{"compound": "OC(CNCC(O)C1CCc2cc(F)ccc2O1)C1CCc2cc(F)ccc2O1", "note": "(centres unmarked) [nebivolol]", "log P": 4.08}
{"compound": "CN1CCC(CN2c3ccccc3Sc3ccccc32)C1", "note": "(centres unmarked) [methdilazine]", "log P": 4.64}
{"compound": "Clc1ccc(COC(Cn2ccnc2)c2ccc(Cl)cc2Cl)c(Cl)c1", "note": "(centres unmarked) [miconazole]", "log P": 4.97}
{"compound": "O=C(O)c1cc(/N=N/c2ccc(S(=O)(=O)Nc3ccccn3)cc2)ccc1O", "note": "[sulfasalazine]", "log P": 3.05}
{"compound": "CC(CN(C)C)CN1c2ccccc2CCc2ccccc21", "note": "(centres unmarked) [trimipramine]", "log P": 4.71}
{"compound": "O=C(CCCN1CCC(O)(c2ccc(Cl)cc2)CC1)c1ccc(F)cc1", "note": "[haloperidol]", "log P": 3.76}
{"compound": "CN(C)CCCN1c2ccccc2Sc2ccccc21", "note": "[promazine]", "log P": 4.69}
{"compound": "O=C(CCCN1CC=C(n2c(=O)[nH]c3ccccc32)CC1)c1ccc(F)cc1", "note": "[droperidol]", "log P": 3.10}
{"compound": "CCCCc1cc2ccccc2c(OCCN(C)C)n1", "note": "[dimethisoquin]", "log P": 4.04}
